In ChEMBL document CHEMBL1201862, “PubChem BioAssay data set” (2004):
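The compound was tested at five concentrations on cells cultured in 96-well plates, with a 48-hour exposure period. Here, GI50 denotes the concentration required for 50% inhibition of growth.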 Activity calls are given as the source filed them. Cut-off read from the data, not from the text of the source: active = GI50 up to about 1.1 µM and inactive = higher.

Legend:
Test in all cases: NCI tumour cell line growth inhibition, 48 h
UACC-62 = test system: UACC-62
NCI-H23 = test system: NCI-H23
NCI-H460 = test system: NCI-H460
HT-29 = test system: HT-29
RXF 393 = test system: RXF 393
SNB-19 = test system: SNB-19
OVCAR-8 = test system: OVCAR-8
DLD-1 = test system: DLD-1
TK-10 = test system: TK-10
SN12C = test system: SN12C
NCI-H226 = test system: NCI-H226
NCI-H522 = test system: NCI-H522
RPMI-8226 = test system: RPMI-8226
IGROV-1 = test system: IGROV-1
HCC 2998 = test system: HCC 2998
KM-20L2 = test system: KM-20L2
EKVX = test system: EKVX
MDA-MB-435 = test system: MDA-MB-435
DU-145 = test system: DU-145
Hs-578T = test system: Hs-578T

| SMILES | GI50 (UACC-62) | GI50 (NCI-H23) | GI50 (NCI-H460) | GI50 (HT-29) | GI50 (RXF 393) | GI50 (SNB-19) | GI50 (OVCAR-8) | GI50 (DLD-1) | GI50 (TK-10) | GI50 (SN12C) | GI50 (NCI-H226) | GI50 (NCI-H522) | GI50 (RPMI-8226) | GI50 (IGROV-1) | GI50 (HCC 2998) | GI50 (KM-20L2) | GI50 (EKVX) | GI50 (MDA-MB-435) | GI50 (DU-145) | GI50 (Hs-578T) |
| --- | --- | --- | --- | --- | --- | --- | --- | --- | --- | --- | --- | --- | --- | --- | --- | --- | --- | --- | --- | --- |
| O=C1OC(c2ccccc2)=N/C1=C\c1cccc2ccccc12 | > 100 µM (inactive) | > 100 µM (inactive) | > 100 µM (inactive) | > 100 µM (inactive) | > 100 µM (inactive) | > 100 µM (inactive) | > 100 µM (inactive) | > 100 µM (inactive) | > 100 µM (inactive) | > 100 µM (inactive) | > 100 µM (inactive) | > 100 µM (inactive) | > 100 µM (inactive) | > 100 µM (inactive) | > 100 µM (inactive) |  |  |  |  |  |
| O=C1C[C@@H]2[C@@H](CCC23CC3)N1 | > 100 µM (inactive) | > 100 µM (inactive) | > 100 µM (inactive) | > 100 µM (inactive) | > 100 µM (inactive) | > 100 µM (inactive) | > 100 µM (inactive) | > 100 µM (inactive) | > 100 µM (inactive) | > 100 µM (inactive) | > 100 µM (inactive) | > 100 µM (inactive) | > 100 µM (inactive) | > 100 µM (inactive) | > 100 µM (inactive) | > 100 µM (inactive) | > 100 µM (inactive) |  |  |  |
| CCCOC(=O)C1CCC(=O)N1C(=O)C(Cl)Cl (centres undefined) | > 100 µM (inactive) | > 100 µM (inactive) | > 100 µM (inactive) | > 100 µM (inactive) |  | > 100 µM (inactive) | > 100 µM (inactive) | > 100 µM (inactive) | > 100 µM (inactive) | > 100 µM (inactive) | > 100 µM (inactive) | > 100 µM (inactive) | > 100 µM (inactive) | > 100 µM (inactive) | > 100 µM (inactive) | > 100 µM (inactive) | > 100 µM (inactive) |  |  |  |
| COc1ccc(Cc2c(=O)[nH]nc3ccccc23)cc1 | > 100 µM (inactive) | 61 µM (inactive) | > 100 µM (inactive) | > 100 µM (inactive) |  | > 100 µM (inactive) | 90.6 µM (inactive) | > 100 µM (inactive) | > 100 µM (inactive) | > 100 µM (inactive) | 85.7 µM (inactive) |  | > 100 µM (inactive) | > 100 µM (inactive) | > 100 µM (inactive) | > 100 µM (inactive) | > 100 µM (inactive) |  |  |  |
| Cc1ccc(-c2cc(=O)c3cc(C)c(C)c(C(=O)O)c3o2)cc1[N+](=O)[O-] | > 100 µM (inactive) | > 100 µM (inactive) | > 100 µM (inactive) | > 100 µM (inactive) | > 100 µM (inactive) | > 100 µM (inactive) | > 100 µM (inactive) | > 100 µM (inactive) | > 100 µM (inactive) | > 100 µM (inactive) | > 100 µM (inactive) | > 100 µM (inactive) | > 100 µM (inactive) | > 100 µM (inactive) |  | > 100 µM (inactive) | > 100 µM (inactive) |  |  |  |
| Cc1nc2ccc(N)cc2nc1O | > 100 µM (inactive) |  | > 100 µM (inactive) |  |  | > 100 µM (inactive) | > 100 µM (inactive) | > 100 µM (inactive) | > 100 µM (inactive) |  |  |  | > 100 µM (inactive) | > 100 µM (inactive) | > 100 µM (inactive) | > 100 µM (inactive) | > 100 µM (inactive) |  |  |  |
| O=C(O)OC12CCCCCC1C(=O)C1CCCCC12 (centres undefined) | 71.3 µM (inactive) | > 100 µM (inactive) | 77.4 µM (inactive) | > 100 µM (inactive) | 39.3 µM (inactive) | 89.5 µM (inactive) | > 100 µM (inactive) |  | > 100 µM (inactive) | > 100 µM (inactive) | > 100 µM (inactive) | 65.8 µM (inactive) | 43.1 µM (inactive) |  |  | > 100 µM (inactive) | 82.4 µM (inactive) |  |  |  |
| COc1cccc2c1N[S@](=O)S2 | 38.6 µM (inactive) | > 100 µM (inactive) |  | > 100 µM (inactive) |  | 38.1 µM (inactive) |  | 72.9 µM (inactive) | > 100 µM (inactive) | 63.5 µM (inactive) | > 100 µM (inactive) | 86.1 µM (inactive) | 63.4 µM (inactive) | > 100 µM (inactive) |  | > 100 µM (inactive) | > 100 µM (inactive) |  |  |  |
| CCCCn1c2ccccc2c2ccc3c(c21)C(=O)C=CC3=O | > 100 µM (inactive) | > 100 µM (inactive) | > 100 µM (inactive) | 0.991 µM (active) |  | > 100 µM (inactive) | > 100 µM (inactive) | > 100 µM (inactive) | > 100 µM (inactive) | > 100 µM (inactive) | > 100 µM (inactive) | > 100 µM (inactive) | > 100 µM (inactive) | > 100 µM (inactive) | > 100 µM (inactive) | > 100 µM (inactive) |  |  |  |  |
| COc1ccc(/C(Cl)=C(\C=O)c2ccc([N+](=O)[O-])cc2)cc1OC | 3.92 µM (inactive) | 4.26 µM (inactive) | 9.27 µM (inactive) | 14.2 µM (inactive) | 3.76 µM (inactive) | > 46.5 µM (inactive) | 7.64 µM (inactive) |  | 13.4 µM (inactive) | 5.73 µM (inactive) | 11.4 µM (inactive) | 4.07 µM (inactive) | 2.87 µM (inactive) | 17.3 µM (inactive) |  | 12.2 µM (inactive) | > 33.3 µM (inactive) | 3.24 µM (inactive) | 19.2 µM (inactive) | 5.69 µM (inactive) |
| CCC/N=C/c1c(O)c(O)c(C(C)C)c2cc(C)c(-c3c(C)cc4c(C(C)C)c(O)c(O)c(/C=N/CCC)c4c3O)c(O)c12 | 5.78 µM (inactive) | 6.1 µM (inactive) | 4.38 µM (inactive) | 4.04 µM (inactive) | 3.54 µM (inactive) | 6.47 µM (inactive) | 6.46 µM (inactive) |  | > 100 µM (inactive) | 10.4 µM (inactive) | 14.6 µM (inactive) | 1.53 µM (inactive) | 9.16 µM (inactive) | 11.1 µM (inactive) | 8.61 µM (inactive) | 2.86 µM (inactive) | 7.19 µM (inactive) | 10.7 µM (inactive) | 23.8 µM (inactive) | 69.3 µM (inactive) |
| CC(=O)OCC1OC(SC2=N/C(=C\c3cc4c(=O)c5ccccc5sc4s3)C(=O)N2c2ccccc2)C(OC(C)=O)C(OC(C)=O)C1OC(C)=O (centres undefined) | > 100 µM (inactive) | > 100 µM (inactive) | 83.2 µM (inactive) | > 100 µM (inactive) | 81.5 µM (inactive) | 40.4 µM (inactive) | > 100 µM (inactive) |  | > 100 µM (inactive) | > 100 µM (inactive) | > 100 µM (inactive) | > 100 µM (inactive) | 50.9 µM (inactive) | > 100 µM (inactive) | > 100 µM (inactive) |  | 65 µM (inactive) | > 100 µM (inactive) | > 100 µM (inactive) | > 100 µM (inactive) |
| NS(=O)(=O)c1ccc(NC(=O)Nc2ccccc2F)cc1 | 72.3 µM (inactive) | > 100 µM (inactive) | > 100 µM (inactive) | 76 µM (inactive) | > 100 µM (inactive) | > 100 µM (inactive) | > 100 µM (inactive) |  | > 100 µM (inactive) | > 100 µM (inactive) | > 100 µM (inactive) | > 100 µM (inactive) | > 100 µM (inactive) | > 100 µM (inactive) | > 100 µM (inactive) |  | > 100 µM (inactive) | > 100 µM (inactive) | > 100 µM (inactive) | > 100 µM (inactive) |
| Cc1ccc(N2C(=O)CS/C2=C(\C#N)c2nc3ccccc3[nH]2)cc1 | 16.1 µM (inactive) | > 100 µM (inactive) | > 100 µM (inactive) |  |  | > 100 µM (inactive) | > 100 µM (inactive) | > 100 µM (inactive) | > 100 µM (inactive) | > 100 µM (inactive) | > 100 µM (inactive) | > 100 µM (inactive) | > 100 µM (inactive) | > 100 µM (inactive) | > 100 µM (inactive) | > 100 µM (inactive) | > 100 µM (inactive) |  |  |  |
| CSCCC(NCc1c(O)ccc2c(-c3ccccc3)cc(=O)oc12)C(=O)O (centres undefined) | > 100 µM (inactive) | > 100 µM (inactive) | > 100 µM (inactive) | > 100 µM (inactive) | > 100 µM (inactive) | > 100 µM (inactive) | > 100 µM (inactive) |  | > 100 µM (inactive) | > 100 µM (inactive) | > 100 µM (inactive) | > 100 µM (inactive) | > 100 µM (inactive) | > 100 µM (inactive) | > 100 µM (inactive) |  | > 100 µM (inactive) | > 100 µM (inactive) | > 100 µM (inactive) | > 100 µM (inactive) |
| O=C1C(Cl)=C(Oc2ccc([N+](=O)[O-])cc2)C(=O)c2c(O)ccc(O)c21 | > 63.7 µM (inactive) | > 57.9 µM (inactive) | > 100 µM (inactive) | 33.9 µM (inactive) | 23.1 µM (inactive) | > 100 µM (inactive) | > 100 µM (inactive) |  | 44.1 µM (inactive) | 98.4 µM (inactive) | > 100 µM (inactive) | 19.2 µM (inactive) | 21 µM (inactive) | > 100 µM (inactive) | > 100 µM (inactive) |  | > 100 µM (inactive) | > 47.5 µM (inactive) | > 100 µM (inactive) | > 100 µM (inactive) |
| CC/C(Cl)=N\OC(=O)Nc1ccc(F)c(Cl)c1 | 20.6 µM (inactive) | 21.2 µM (inactive) | 17.7 µM (inactive) | 24 µM (inactive) | 12.1 µM (inactive) | 14.4 µM (inactive) | 17.7 µM (inactive) |  | 17.5 µM (inactive) | 18 µM (inactive) | 24.4 µM (inactive) | 1.87 µM (inactive) | 3.35 µM (inactive) | 16.3 µM (inactive) | 18.7 µM (inactive) |  | 18.2 µM (inactive) | 21.2 µM (inactive) | 19.7 µM (inactive) | 39.4 µM (inactive) |
